Measurements published in ChEMBL document CHEMBL1133799, “A disubstituted NAD+ analogue is a nanomolar inhibitor of trypanosomal glyceraldehyde-3-phosphate dehydrogenase” (Bioorg Med Chem Lett, 2001).

How the values were obtained:
NIH3T3 = assay: Effective dose required against Trypanosoma cruzi amastigotes in 3T3 Fibroblasts; format: functional; conditions: Mus musculus, read-out: ED50 (the source's name)
[1] = Inhibitory concentration against Trypanosoma brucei glyceraldehyde-3-phosphate dehydrogenase (GAPDH)
[2] = Inhibitory concentration against Trypanosoma cruzi glyceraldehyde-3-phosphate dehydrogenase (GAPDH)
[3] = Inhibitory concentration against rabbit muscle glyceraldehyde-3-phosphate dehydrogenase (GAPDH); set-up: species or system Oryctolagus cuniculus
Trypanosoma brucei = assay: Effective dose required against Trypanosoma brucei in bloodstream; format: functional; conditions: read-out: ED50 (the source's name)
Trypanosoma cruzi [4] = assay: Effective dose required against Trypanosoma cruzi amastigotes; conditions: read-out: ED50 (the source's name)
[5] = target: glyceraldehyde-3-phosphate dehydrogenase (Leishmania mexicana); assay: Inhibitory concentration against Leishmania mexicana glyceraldehyde-3-phosphate dehydrogenase (GAPDH)
Trypanosoma cruzi [6] = assay: Effective dose required against Trypanosoma cruzi amastigotes; conditions: read-out: ED50 (the source's name); remark: listed apart in the source
[7] = target: glyceraldehyde-3-phosphate dehydrogenase (Leishmania mexicana); assay: Inhibitory concentration against Leishmania mexicana glyceraldehyde-3-phosphate dehydrogenase (GAPDH); remark: listed apart in the source

| SMILES | IC50 [1] [µM] | IC50 [2] [µM] | IC50 [3] [µM] | EC50 (Trypanosoma brucei) [µM] | EC50 (Trypanosoma cruzi [4]) [µM] | IC50 [5] [µM] | EC50 (Trypanosoma cruzi [6]) [µM] | IC50 [7] [µM] | EC50 (NIH3T3) [µM] |
| --- | --- | --- | --- | --- | --- | --- | --- | --- | --- |
| O=C(Cn1ccnc1[N+](=O)[O-])NCc1ccccc1 [BENZNIDAZOLE] | – | – | – | – | – | – | – | – | > 50 |
| NC(=O)c1ccc[n+]([C@@H]2O[C@H](COP(=O)([O-])O)[C@@H](O)[C@H]2O)c1 [BETANMN] | – | – | > 500 | – | – | > 500 | – | – | – |

Now from value to compound, other results behind:

| IC50 [1] [µM] | IC50 [2] [µM] | IC50 [3] [µM] | EC50 (Trypanosoma brucei) [µM] | EC50 (Trypanosoma cruzi [4]) [µM] | IC50 [5] [µM] | EC50 (Trypanosoma cruzi [6]) [µM] | IC50 [7] [µM] | SMILES | EC50 (NIH3T3) [µM] |
| --- | --- | --- | --- | --- | --- | --- | --- | --- | --- |
| 7 | 5 | > 100 | 32 | 6 | 2 | – | – | COc1cccc(C(=O)N[C@@H]2[C@H](O)[C@@H](COP(=O)(O)O)O[C@H]2n2cnc3c(NCc4cccc5ccccc45)ncnc32)c1 | 90 |
| 25 | 12 | > 50 | 30 | – | – | 20 | 6 | COc1cccc(C(=O)N[C@@H]2[C@H](O)[C@@H](CO)O[C@H]2n2cnc3c(NCc4cccc5ccccc45)ncnc32)c1 | > 50 |
| – | – | – | 0.008 | – | – | – | – | N=C(N)c1ccc(OCCCCCOc2ccc(C(=N)N)cc2)cc1 [PENTAMIDINE] | – |
